Laboratory results as given in patent US20090062255A1, “TUMOR-TARGETING EVALUATION METHODOLOGY AND COMPOUNDS RELATED THERETO” (THALLION PHARMACEUTICALS INC., priority 2007, published 2009).
Values joined by “and” are separate entries in the source; they are usually repeats but may differ in a detail not shown here. Identical values can stand only once. Like-named read-outs stand apart in the source and are kept apart here.

What was measured:
[1] = test system: ERK phosphorylation, human pancreatic MiaPaCa-2 cell line (mutated K-Ras); test: EGF-stimulated ERK phosphorylation in MiaPaCa-2 cells; type: cell-based
Description: To evaluate whether ECO-4601 interferes with K-Ras signalling, the human pancreatic MiaPaCa-2 cell line, a tumor cell line known to express mutated K-Ras, was employed.

[2] = Plasma and tissue drug levels after IV bolus and CIV infusion, rat C6 orthotopic brain tumors; type: in vivo
Description: 14 days post-tumor implantation, rats received a bolus IV administration of compound 1 (30 mg/kg; 1.5 mL at 0.5 mL per min) followed by continuous IV infusion (5 mg/kg/hour; 0.7 mL/hour) over 3 hours. The animals were then sacrificed by anesthetic overdose and blood was collected by heart puncture. Brain, tumor and liver were snap-frozen in liquid nitrogen and stored at −80° C. until analysis. Blood samples was collected into K2-EDTA tubes and kept on ice for a maximum of 30 min. Samples were then centrifuged at 4° C. and 1500 g (RCF). A volume of 225 μL of rat plasma was added to clean tubes containing 25 μL of aqueous 4% w/v L-ascorbic acid and samples were mixed and stored at −80° C. until analysis.
Binding potential (B.P.) data and Compound 1 plasma levels and tissue levels for each of the seven rats included in the study are presented in Table 23 below and summarized in FIG. 7.

[3] = test system: MES-SA/DX5 (doxorubicin-resistant P-glycoprotein over-expressing variant); test: Growth inhibitory MTT assay, MES-SA/DX5; type: cell-based, human; details: 72 hours, treated over control
Description: Growth inhibitory activity of ECO-4601 (Compound 1) and other dibenzodiazepinone analogs was evaluated on a panel of 4 human tumor cell lines: the human uterine sarcoma MES-SA and its doxorubicin-resistant P-glycoprotein over-expressing variant, MES-SA/DX5 as well as non-aggressive and highly aggressive human breast cell lines, MCF-7 and MDA-MB-231, respectively. These four cell lines were obtained from the American Type Culture Collection (Manassas, Va.) and cultured in RPMI plus 10% fetal bovine serum (FBS) and maintained at 37° C. with 5% CO2.
Exponentially growing cells (5,000 cells per well time; cell number determined with a hemocytometer) were seeded in 96-well flat-bottom plates and allowed to grow overnight. Cells were then incubated for 72 hours with three different concentrations of ECO-4601 or analogs: 30,10, and 3 μM. The in vitro growth inhibitory activity was determined by a commercial MTT assay. All measurements were done in quadruplicate and each experiment was performed 2-3 times. The lower the value, the more cytotoxic is the compound.

[4] = target: GABAA, the Central Benzodiazepine Receptor (CBR); test: CBR radioligand binding assay ([3H]flunitrazepam, rat brain); details: 1 nM [3H]-Flunitrazepam
Description: GABAA, the Central Benzodiazepine Receptor (CBenzR or CBR) is involved in anxiolitic activities.
The procedures used were based on known assays: ACAT (from rat; Ref: Largis et al (1989), J. Lipid. Res., vol 30, 681-689), COX-2 (human; Ref: Riendeau et al (1997), Can. J. Physiol. Pharmacol., vol 75, 1088-1095 and Warner et al (1999), Pro. Natl. Acad. Sci. USA, vol 96, 7563-7568), 5-LO (human; Ref: Carter et al (1991), J. Pharmacol. Exp. Ther., vol 256, no 3, 929-937, and Safayhi et al (2000), Planta Medica, vol 66, 110-113), PBR (from rat; Le Fur et al (1983), Life Sci. USA, vol 33, 449-457), CysLT1 (human; Martin et al (2001), Biochem. Pharmacol., vol 62, no 9, 1193-1200) and CBR (from rat; Damm et al (1978), Res. Comm. Chem. Pathol. Pharmacol., vol 22, 597-600 and Speth et al (1979), Life Sci., vol 24, 351-357).
Binding Assays were done at constant concentration of the compound, in 1% DMSO as vehicle, and are specified below each enzyme/receptor type in Table 18. The results are expressed in Table 18 as percentage inhibition. […]
As Compound 1 was isolated from structural prediction through genetic analysis and activity identified through in vitro cytotoxic assays, its molecular target(s) were unknown at the time of discovery. […] The effect of ECO-4601 on CBR (GABAA) and PBR was initially evaluated in a radioligand-binding assay at MDS Pharma Services (Taipei, Tawain). […]

[5] = individual rats, IV bolus 30 mg/kg then CIV 5 mg/kg/hour over 3 hours, listed as ECO-4601

With `CC(C)=CCC/C(C)=C/CC/C(C)=C/CN1C(=O)c2cccc(O)c2Nc2c(O)cc(O)cc21` [Compound 1, 10-farnesyl-4,6,8-trihydroxy-5,10-dihydrodibenzo[b,e][1,4]diazepin-11-one] the “inhibition of EGF-stimulated ERK phosphorylation” value [1] was “dose and time dependent inhibition”, the “tumor compared to liver” value ([2]; FIG. 7) was 7 fold and the “Brain Drug Level” value [2, 5] was 527 ng/g and 692 ng/g and 823 ng/g and 1265 ng/g and 941 ng/g and 503 ng/g and 596 ng/g. The “Liver Drug Level” value [2, 5] was 11.2 µg/g and 6.91 µg/g and 53.1 µg/g and 61.0 µg/g and 14.2 µg/g and 3.31 µg/g and 2.29 µg/g, the “Plasma Drug Level” value [2, 5] was 16000 ng/mL and 12000 ng/mL and 22000 ng/mL and 32000 ng/mL and 11500 ng/mL and 4200 ng/mL and 4100 ng/mL and the “Tumor Drug Level” value [2, 5] was 234 µg/g and 8.46 µg/g and 182 µg/g and 273 µg/g and 242 µg/g and 8.98 µg/g and 119 µg/g. The concentration at 3 h ([2]; rat, liver, intravenous, FIG. 7, read-out: liver level (mean)) was 24800 ng/g, the concentration at 3 h ([2]; rat, plasma, intravenous, FIG. 7, read-out: plasma level (mean)) was 16200 ng/g and the Kp at 3 h ([2]; rat, tumor / plasma, intravenous, FIG. 7, read-out: tumor compared to plasma) was 11. For the same molecule, the concentration at 3 h ([2]; rat, tumor, intravenous, FIG. 7, read-out: accumulation in the tumor (mean level)) was 176000 ng/mL, the “% T/C at 10 μM” value [3] was 100% and the IC50 [4] was greater than 10 µM.
